According to US10611750B2, “Tetrahydroquinoline compositions as bet bromodomain inhibitors” (FORMA Therapeutics, Inc., priority 2013, dated 2020):

What was measured:
[1] = biological target: T1, BRD4 Bromodomain 1 (BRD4 BD1) (Homo sapiens, UniProt O60885); test: AlphaScreen binding assay, BRD4 BD1; conditions: His-tagged BRD4 BD1 50 nM, biotinylated H4 (1-21) K5/8/12/16 tetra-acetylated peptide 50 nM, compounds listed under IC50 range headings
T1 construct: 44-168 and BRD4 BD2
Outline: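 Compound dilution series were mixed with His-tagged BRD4 bromodomain and biotinylated tetra-acetylated H4 (1-21) peptide at pH 7.3 (BD1 and peptide at 50 nM, BD2 and peptide at 100 nM). Donor and acceptor beads were then added, and plates were equilibrated at least 1 h before reading. IC50 values were fitted with a four-parameter logistic model.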

[2] = biological target: T2, BRD4 Bromodomain 2 (BRD4 BD2) (Homo sapiens, UniProt O60885); test: AlphaScreen binding assay, BRD4 BD2; conditions: His-tagged BRD4 BD2 100 nM, biotinylated H4 (1-21) K5/8/12/16 tetra-acetylated peptide 100 nM, compounds listed under IC50 range headings
T2 construct: 333-460 were cloned, expressed, and purified to homogeneity
Experimental: The binding of Example compounds to BRD4 Bromodomain 1 and BRD4 Bromodomain 2 was assessed using 384-well AlphaScreen assay technology. His-epitope tagged BRD4 BD144-168 and BRD4 BD2333-460 were cloned, expressed, and purified to homogeneity. BRD4 BD1 and BRD4 BD2 binding and inhibition was assessed by monitoring the engagement of biotinylated Histone H4 (1-21) K5/8/12/16 tetra-acetylated peptide with the targets using the AlphaScreen technology (PerkinElmer). Specifically, in a 384-well black or white flat bottom plate, BRD4 BD1 (50 nM final) or BRD4 BD2 (100 nM final) was combined with peptide (50 nM final for BD1 or 100 nM final for BD2) in 50 mM HEPES (pH 7.3), 100 mM NaCl, 0.1% (w/v) BSA, and 0.01% (w/v) Triton X-100 either in the presence of DMSO (final 1.25% DMSO) or compound dilution series in DMSO. Alpha streptavidin donor beads and Nickel-chelate acceptor beads were added to a final concentration of 10 μg/ml each. After a minimum of 1 hour equilibration, plates were read on a BMG PHERAstar FS multi-label reader (BMG LabTech). The half maximal inhibitory concentration (IC50) values were calculated using IDBS Activity Base software with a four parameter logistic curve fit by the equation y=A+((B−A)/(1+((C/x)^D))), wherein A denotes the bottom plateau of the curve, B denotes the top plateau of the curve, C denotes the x value at the middle of the curve, D denotes the slope factor, x denotes the original known x values, and y denotes the original known y values. Data was fitted using the Levenburg Marquardt algorithm.

In the case of `CC(=O)N1c2ccc(-c3cnn(C4CC4)c3)c(OCc3ccccc3)c2CC[C@@H]1C` [I-393], the IC50 [1] is reported as 1 to 10 µM and the IC50 [2] is reported as under 50 nM.

Compound `CC(=O)N1c2ccc(-c3cnn(C4CC4)c3)c(OCC#N)c2CC[C@@H]1C` [I-397] has an IC50 [1] of 1 to 10 µM and an IC50 [2] of 50 to 500 nM.

`CC(=O)N1c2ccc(-c3cnn(C4CC4)c3)c(OCc3cccnc3)c2CC[C@@H]1C` [I-399] gave an IC50 [1] of 1 to 10 µM and an IC50 [2] of 50 to 500 nM.

With `CC(=O)N1c2ccc(-c3cnn(C4CC4)c3)c(OCc3ccccn3)c2CC[C@@H]1C` [I-403] the IC50 [1] was 1 to 10 µM and the IC50 [2] was 50 to 500 nM.

For `COc1c(-c2cnn(C3CC3)c2)ccc2c1CC[C@H](C)N2C(C)=O` [I-404], the IC50 [1] was 1 to 10 µM and the IC50 [2] was 50 to 500 nM.

Work on `CC(=O)N1c2ccc(-c3cnn(C4CC4)c3)c(OCc3ccn(C)n3)c2CC[C@@H]1C` [I-405] yielded an IC50 [1] of 1 to 10 µM and an IC50 [2] of 50 to 500 nM.

In the case of `CC(=O)N1c2ccc(-c3cnn(C4CC4)c3)c(OCc3cncs3)c2CC[C@@H]1C` [I-406], the IC50 [1] is reported as 1 to 10 µM and the IC50 [2] is reported as 50 to 500 nM.

With `CC(=O)N1c2ccc(-c3cnn(CC(C)(C)O)c3)c(OCC3CCOCC3)c2CC[C@@H]1C` [I-414] the IC50 [1] was 1 to 10 µM and the IC50 [2] was 50 to 500 nM.

`CC(=O)N1c2ccc(-c3cnn(CCS(C)(=O)=O)c3)c(OCC(=O)N(C)C)c2CC[C@@H]1C` [I-417] was tested, and the IC50 [1] was 1 to 10 µM and the IC50 [2] was 50 to 500 nM.

In the case of `CC(=O)N1c2ccc(-c3cnn(CC(C)(C)O)c3)c(OCC(=O)N(C)C)c2CC[C@@H]1C` [I-418], the IC50 [1] is reported as 1 to 10 µM and the IC50 [2] is reported as 50 to 500 nM.

`CC(=O)N1c2ccc(-c3cnn(C4CCNCC4)c3)c(OCC(=O)N(C)C)c2CC[C@@H]1C` [I-419] was tested, and the IC50 [1] was 1 to 10 µM and the IC50 [2] was 50 to 500 nM.

Work on `CC(=O)N1c2ccc(-c3cnn(CC(C)(C)O)c3)c(OCC(C)C)c2CC[C@@H]1C` [I-421] yielded an IC50 [1] of 1 to 10 µM and an IC50 [2] of 50 to 500 nM.

Work on `CC(=O)N1c2ccc(-c3cnn(CCS(C)(=O)=O)c3)c(OCC(=O)N3CCCC3)c2CC[C@@H]1C` [I-428] yielded an IC50 [1] of 1 to 10 µM and an IC50 [2] of 50 to 500 nM.

In the case of `CC(=O)N1c2ccc(-c3cnn(CC(C)(C)O)c3)c(OCC(=O)N3CCCC3)c2CC[C@@H]1C` [I-429], the IC50 [1] is reported as 1 to 10 µM and the IC50 [2] is reported as 50 to 500 nM.

Work on `CC(=O)N1c2ccc(-c3cnn(CCO)c3)c(OCC(=O)N3CCCC3)c2CC[C@@H]1C` [I-430] yielded an IC50 [1] of 1 to 10 µM and an IC50 [2] of 50 to 500 nM.

In the case of `CC(=O)N1c2ccc(-c3cnn(CCS(C)(=O)=O)c3)c(OC[C@H]3CCC(=O)N3)c2CC[C@@H]1C` [I-432], the IC50 [1] is reported as 1 to 10 µM and the IC50 [2] is reported as 50 to 500 nM.

With `CC(=O)N1c2ccc(-c3cnn(CC(C)(C)O)c3)c(OC[C@H]3CCC(=O)N3)c2CC[C@@H]1C` [I-433] the IC50 [1] was 1 to 10 µM and the IC50 [2] was 50 to 500 nM.

Compound `CC(=O)N1c2ccc(-c3cnn(CCO)c3)c(OC[C@H]3CCC(=O)N3)c2CC[C@@H]1C` [I-434] has an IC50 [1] of 1 to 10 µM and an IC50 [2] of 50 to 500 nM.

For `CC(=O)N1c2ccc(-c3cnn(C4CCNCC4)c3)c(OC[C@H]3CCC(=O)N3)c2CC[C@@H]1C` [I-435], the IC50 [1] was 1 to 10 µM and the IC50 [2] was 50 to 500 nM.

Compound `CC(=O)N1c2ccc(-c3cnn(CCS(C)(=O)=O)c3)c(OCCN(C)S(C)(=O)=O)c2CC[C@@H]1C` [I-436] has an IC50 [1] of 1 to 10 µM and an IC50 [2] of 50 to 500 nM.

`CC(=O)N1c2ccc(-c3cnn(CC(C)(C)O)c3)c(OCCN(C)S(C)(=O)=O)c2CC[C@@H]1C` [I-437] showed an IC50 [1] of 1 to 10 µM and an IC50 [2] of 50 to 500 nM.

In the case of `CC(=O)N1c2ccc(-c3cnn(CCO)c3)c(OCCN(C)S(C)(=O)=O)c2CC[C@@H]1C` [I-438], the IC50 [1] is reported as 1 to 10 µM and the IC50 [2] is reported as 50 to 500 nM.

Compound `CC(=O)N1c2ccc(-c3cnn(C4CCNCC4)c3)c(OCCN(C)S(C)(=O)=O)c2CC[C@@H]1C` [I-439] has an IC50 [1] of 1 to 10 µM and an IC50 [2] of 50 to 500 nM.

In the case of `CC(=O)N1c2ccc(-c3cnn(CCO)c3)c(OC[C@H]3CCNC3)c2CC[C@@H]1C` [I-440], the IC50 [1] is reported as 1 to 10 µM and the IC50 [2] is reported as 50 to 500 nM.

With `CCCOc1c(-c2cnn(CCS(C)(=O)=O)c2)ccc2c1CC[C@H](C)N2C(=O)OC` [I-441] the IC50 [1] was 1 to 10 µM and the IC50 [2] was 50 to 500 nM.

Compound `COC(=O)N1c2ccc(-c3cnn(CCS(C)(=O)=O)c3)c(OCC3CCOCC3)c2CC[C@@H]1C` [I-448] has an IC50 [1] of 1 to 10 µM and an IC50 [2] of 50 to 500 nM.

`COC(=O)N1c2ccc(-c3cnn(CCO)c3)c(OCC3CCOCC3)c2CC[C@@H]1C` [I-450] was tested, and the IC50 [1] was 1 to 10 µM and the IC50 [2] was 50 to 500 nM.

Compound `COC(=O)N1c2ccc(-c3cnn(C4CCNCC4)c3)c(OCC3CCOCC3)c2CC[C@@H]1C` [I-451] has an IC50 [1] of 1 to 10 µM and an IC50 [2] of 50 to 500 nM.

For `COC(=O)N1c2ccc(-c3cnn(CCS(C)(=O)=O)c3)c(OCC(=O)N(C)C)c2CC[C@@H]1C` [I-452], the IC50 [1] was 1 to 10 µM and the IC50 [2] was 50 to 500 nM.

In the case of `COC(=O)N1c2ccc(-c3cnn(CC(C)(C)O)c3)c(OCC(=O)N(C)C)c2CC[C@@H]1C` [I-453], the IC50 [1] is reported as 1 to 10 µM and the IC50 [2] is reported as 50 to 500 nM.

With `COC(=O)N1c2ccc(-c3cnn(C4CCNCC4)c3)c(OCC(=O)N(C)C)c2CC[C@@H]1C` [I-454] the IC50 [1] was 1 to 10 µM and the IC50 [2] was 50 to 500 nM.

`COC(=O)N1c2ccc(-c3cnn(CCS(C)(=O)=O)c3)c(OCC(C)C)c2CC[C@@H]1C` [I-455] was tested, and the IC50 [1] was 1 to 10 µM and the IC50 [2] was 50 to 500 nM.

Work on `COC(=O)N1c2ccc(-c3cnn(CC(C)(C)O)c3)c(OCC(C)C)c2CC[C@@H]1C` [I-456] yielded an IC50 [1] of 1 to 10 µM and an IC50 [2] of 50 to 500 nM.

For `COC(=O)N1c2ccc(-c3cnn(CCO)c3)c(OCC(C)C)c2CC[C@@H]1C` [I-457], the IC50 [1] was 1 to 10 µM and the IC50 [2] was 50 to 500 nM.

`COC(=O)N1c2ccc(-c3cnn(CC(C)(C)O)c3)c(OCC3CCCC3)c2CC[C@@H]1C` [I-460] showed an IC50 [1] of 1 to 10 µM and an IC50 [2] of 50 to 500 nM.

Work on `COC(=O)N1c2ccc(-c3cnn(CCS(C)(=O)=O)c3)c(OCC(=O)N3CCCC3)c2CC[C@@H]1C` [I-463] yielded an IC50 [1] of 1 to 10 µM and an IC50 [2] of 50 to 500 nM.

For `COC(=O)N1c2ccc(-c3cnn(CC(C)(C)O)c3)c(OCC(=O)N3CCCC3)c2CC[C@@H]1C` [I-464], the IC50 [1] was 1 to 10 µM and the IC50 [2] was 50 to 500 nM.

Compound `COC(=O)N1c2ccc(-c3cnn(CCO)c3)c(OCC(=O)N3CCCC3)c2CC[C@@H]1C` [I-465] has an IC50 [1] of 1 to 10 µM and an IC50 [2] of 50 to 500 nM.

`COC(=O)N1c2ccc(-c3cnn(CCS(C)(=O)=O)c3)c(OC[C@H]3CCC(=O)N3)c2CC[C@@H]1C` [I-467] gave an IC50 [1] of 1 to 10 µM and an IC50 [2] of 50 to 500 nM.

With `COC(=O)N1c2ccc(-c3cnn(CC(C)(C)O)c3)c(OC[C@H]3CCC(=O)N3)c2CC[C@@H]1C` [I-468] the IC50 [1] was 1 to 10 µM and the IC50 [2] was 50 to 500 nM.

With `COC(=O)N1c2ccc(-c3cnn(CCO)c3)c(OC[C@H]3CCC(=O)N3)c2CC[C@@H]1C` [I-469] the IC50 [1] was 1 to 10 µM and the IC50 [2] was 50 to 500 nM.

`COC(=O)N1c2ccc(-c3cnn(C4CCNCC4)c3)c(OC[C@H]3CCC(=O)N3)c2CC[C@@H]1C` [I-470] showed an IC50 [1] of 1 to 10 µM and an IC50 [2] of 50 to 500 nM.

Compound `COC(=O)N1c2ccc(-c3cnn(CCS(C)(=O)=O)c3)c(OCCN(C)S(C)(=O)=O)c2CC[C@@H]1C` [I-471] has an IC50 [1] of 1 to 10 µM and an IC50 [2] of 50 to 500 nM.

Work on `COC(=O)N1c2ccc(-c3cnn(CC(C)(C)O)c3)c(OCCN(C)S(C)(=O)=O)c2CC[C@@H]1C` [I-472] yielded an IC50 [1] of 1 to 10 µM and an IC50 [2] of 50 to 500 nM.

Compound `COC(=O)N1c2ccc(-c3cnn(CCO)c3)c(OCCN(C)S(C)(=O)=O)c2CC[C@@H]1C` [I-473] has an IC50 [1] of 1 to 10 µM and an IC50 [2] of 50 to 500 nM.

`COC(=O)N1c2ccc(-c3cnn(C4CCNCC4)c3)c(OCCN(C)S(C)(=O)=O)c2CC[C@@H]1C` [I-474] showed an IC50 [1] of 1 to 10 µM and an IC50 [2] of 50 to 500 nM.

`COC(=O)N1c2ccc(-c3cnn(CCS(C)(=O)=O)c3)c(OC[C@H]3CCNC3)c2CC[C@@H]1C` [I-475] showed an IC50 [1] of 1 to 10 µM and an IC50 [2] of 50 to 500 nM.

In the case of `COC(=O)N1c2ccc(-c3cnn(C4CCNCC4)c3)c(OC[C@H]3CCNC3)c2CC[C@@H]1C` [I-477], the IC50 [1] is reported as 1 to 10 µM and the IC50 [2] is reported as 50 to 500 nM.
